Test results published in patent US10543159B2, “Hair papilla cell activator” (Ezaki Glico Co., Ltd., priority 2014, dated 2020).

Key:
[1] = system: human follicle dermal papilla cells; experiment: Follicle dermal papilla cell proliferation, Cell Counting Kit-F cell count (Example 2); format: cell-based; conditions: concentration series of Table 1A, 3 days
Protocol: A strain (Lot. 3092504.12) sold by PromoCell (Germany) was used as human follicle dermal papilla cells. The cells were cultured in a CO2 incubator at 37° C., using a special medium for follicle dermal papilla cells (PromoCell), unless otherwise indicated. Cell subculturing was performed as follows: cells were seeded at 5000 to 10000 cells/cm^2 in an uncoated dish, and when the cells reached subconfluent, they were treated with trypsin-EDTA (0.03%) and detached, and then re-seeded. […] The medium was replaced about once every 3 days.
1. The procedures (1) and (3) to (5) in Example 1 were performed in the same manner as described above. Solutions of the compositions shown in the following table were prepared in a concentration series starting from a 10% (w/v) aqueous solution of POs-Ca (R), a 12.9% (w/v) aqueous solution of G1P-Ca, a 1.84% (w/v) aqueous solution of CaCl2.2H2O, or a 10% (w/v) aqueous solution of POs-Na.
2. In place of the conditions ((6), (7) and (8)) in Example 1, Cell Counting Kit-F (Dojindo Molecular Technologies, Inc.) was added to each well in accordance with the manual, and the number of cells was counted.

[2] = system: CSPG4; experiment: Quantitative PCR gene expression in follicle dermal papilla cells: CSPG4; format: cell-based, human; conditions: Example 3: 0.25% POs-Ca (R) or CaCl2 of equivalent calcium, DMEM, 37° C., 5 hours; Dunnett, n=6
Protocol: (§1) (1) 500 μl of a special medium in which 4×10^4 cells/ml of follicle dermal papilla cells were suspended was dispensed into a type I collagen-coated 24-well cell culture plate (Corning), and cultured at a cell density of 1.0×10^4 cells/cm^2 at 37° C. for 42 hours. (2) (a) Water (control), (b) a 2.5% (w/v) aqueous solution of POs-Ca (R), and (c) a 0.457% aqueous solution of CaCl2 (having an equivalent amount of calcium to that of (b)) were prepared. Each of the solutions (a) to (c) was mixed with DMEM high glucose (Sigma, USA) at a ratio of 1:9. […]
(§2) (6) 0.5 μl of each of cDNA solutions diluted 2-fold with water, 1 μl of a solution containing 4 μM of each of primers 1 and 2 for each of the genes shown in Table 2, 5 μl of SYBR Premix Ex Taq II (Takara), and 3.5 μl of water were added, and quantitative PCR was performed on each of the genes. […] Fluorescence intensity after each cycle was measured.
(§3) (8) The average value of calculated expression levels was determined for the six samples derived from the cells treated under the respective conditions, and defined as the expression level relative to the control.

[3] = system: Wnt5a; experiment: Quantitative PCR gene expression in follicle dermal papilla cells: Wnt5a; format: cell-based, human; conditions: Example 3: 0.25% POs-Ca (R) or CaCl2 of equivalent calcium, DMEM, 37° C., 5 hours; Dunnett, n=6
Protocol: (1) 500 μl of a special medium in which 4×10^4 cells/ml of follicle dermal papilla cells were suspended was dispensed into a type I collagen-coated 24-well cell culture plate (Corning), and cultured at a cell density of 1.0×10^4 cells/cm^2 at 37° C. for 42 hours. […] Each of the solutions (a) to (c) was mixed with DMEM high glucose (Sigma, USA) at a ratio of 1:9.
(3) The medium was aspirated from each well obtained in (1), the well was washed by adding 1 ml of 1×PBS (137 mM NaCl, 8.1 mM Na2HPO4, 2.68 mM KCl, 1.47 mM KH2PO4 (pH 7.4); Wako Pure Chemical Industries, Ltd.), and aspirating the PBS, 500 μl of DMEM high glucose was added, and the cells were incubated in a CO2 incubator at 37° C. for 5 hours. […]
(4) The medium was removed from each well, and then mRNA was extracted using CellAmp Direct RNA Prep Kit for RT-PCR (Takara). The method was performed in accordance with the manual for the kit.
(5) 8 μl of the extracted mRNA solution (200 μl for each well) was used, and cDNA was obtained by the reverse transcription reaction at a scale of 40 μl, using PrimeScript RT Master Mix (Takara). The reaction conditions were as set forth in the manual for the kit.
(6) 0.5 μl of each of cDNA solutions diluted 2-fold with water, 1 μl of a solution containing 4 μM of each of primers 1 and 2 for each of the genes shown in Table 2, 5 μl of SYBR Premix Ex Taq II (Takara), and 3.5 μl of water were added, and quantitative PCR was performed on each of the genes. Using CFX96 Touch (BIO-RAD, USA), denaturation treatment at 95° C. for 30 seconds was performed, and then a two-step cycle at 95° C. for 5 seconds and at 62° C. for 20 seconds was performed for 65 cycles. Fluorescence intensity after each cycle was measured.
(7) Using PGK1 and GAPDH as reference genes, a comparative analysis of expression levels was performed with the analysis software (Bio-Rad CFX Manager 3.0) included in CFX96Touch. Relative expression levels were calculated under the default conditions of the software. […]

[4] = system: ALPL; experiment: Quantitative PCR gene expression in follicle dermal papilla cells: ALPL; format: cell-based, human; conditions: Example 3: 0.25% POs-Ca (R) or CaCl2 of equivalent calcium, DMEM, 37° C., 5 hours; Dunnett, n=6
Protocol: as §1, §2, §3

[5] = system: tenascin C; experiment: Quantitative PCR gene expression in follicle dermal papilla cells: tenascin C; format: cell-based, human; conditions: Example 3: 0.25% POs-Ca (R) or CaCl2 of equivalent calcium, DMEM, 37° C., 5 hours; Dunnett, n=6
Protocol: as §1, §2, §3

[6] = system: fibronectin; experiment: Quantitative PCR gene expression in follicle dermal papilla cells: fibronectin; format: cell-based, human; conditions: Example 3: 0.25% POs-Ca (R) or CaCl2 of equivalent calcium, DMEM, 37° C., 5 hours; Dunnett, n=6
Protocol: as §1, §2, §3

[7] = system: VEGF; experiment: Quantitative PCR gene expression in follicle dermal papilla cells: VEGF; format: cell-based, human; conditions: Example 3: 0.25% POs-Ca (R) or CaCl2 of equivalent calcium, DMEM, 37° C., 5 hours; Dunnett, n=6
[8] = system: VEGFB; experiment: Quantitative PCR gene expression in follicle dermal papilla cells: VEGFB; format: cell-based, human; conditions: Example 3: 0.25% POs-Ca (R) or CaCl2 of equivalent calcium, DMEM, 37° C., 5 hours; Dunnett, n=6
Protocol: as §1, §2, §3

O.O.[Ca+2].[Cl-].[Cl-] [CaCl2, calcium chloride dihydrate]
number of cells compared to that without addition [1]: not observed
expression of CSPG4 gene compared to control [2]: significant increases in the expression of genes were not observed
expression of Wnt5a gene compared to control [3]: significant increases in the expression of genes were not observed
expression of ALPL gene compared to control [4]: significant increases in the expression of genes were not observed
expression of tenascin C gene compared to control [5]: significant increases in the expression of genes were not observed
expression of fibronectin gene compared to control [6]: significantly decreased
expression of VEGF gene compared to control [7]: significant increases in the expression of genes were not observed
expression of VEGFB compared to control [8]: significantly increased
